Measured values published in patent US11753445B2, “Therapeutic peptides” (COHBAR, INC., priority 2016, dated 2023).
Peptide text beside a SMILES is read from it.

Each compound was assayed on 3T3-L1 Adipocytes (assay: Free fatty acid levels in cultured mouse 3T3-L1 adipocytes, isoproterenol stimulated (Example 2)). Conditions: test peptides 25 μM; isoproterenol 1 nM.
Type: cell-based
Method: Mouse 3T3-L1 cells were seeded at a density between 1,000-20,000 cells per well on 96-well, 48-well, or 24-well plates in Pre-adipocyte Medium (Zen-Bio, Durham, N.C.) and grown to confluence at 37° C. in a humidified atmosphere of 5% CO2/95% air. Two days after confluence, cells were placed in Adipocyte Differentiation Medium (Zen-Bio, Durham, N.C.) and cultured for three additional days at 37° C. in a humidified atmosphere of 5% CO2/95% air. The culture media was then replaced with Adipocyte Maintenance Medium (Zen-Bio) and the cells were maintained for an additional 9-14 days at 37° C. in a humidified atmosphere of 5% CO2/95% air with partial medium replacement every other day. Following 12-17 days of differentiation, test peptides were added at a final concentration of 25 μM and incubated for 18-20 hours in Adipocyte Maintenance Medium at 37° C. in a humidified atmosphere of 5% CO2/95%. After 18-20 hours, the media was exchanged with fresh Adipocyte Maintenance Medium containing test peptides and incubated for 1 h at 37° C. in a humidified atmosphere of 5% CO2/95%. After 1 h media was exchanged with Assay Buffer (Zen-Bio) containing isoproterenol (1 nM) (added to all samples except untreated controls) and the test peptides. Cells were incubated for a further 3 hours at 37° C. in a humidified atmosphere of 5% CO2/95%. Free fatty acid concentrations in the media were determined using a Free Fatty Acid Assay Kit (Zen-Bio) according to the manufacturer's instructions using a plate reader (540 nm).
Absorbance values were corrected for untreated background and expressed relative to isoproterenol treated cells. Treatment with isoproterenol (1 nM) alone was used as the free fatty acid level stimulatory control. The relative standard deviation of the isoproterenol control was <10%. […] Free fatty acid levels for insulin (100 nM) treatment were <5% of the isoproterenol control value.

Compared with `CC[C@H](C)[C@H](NC(=O)[C@H](Cc1ccc(O)cc1)NC(=O)CNC(=O)[C@H](CCSC)NC(=O)[C@H](CCC(=O)O)NC(=O)[C@@H](C)NC(=O)[C@H](Cc1c[nH]c2ccccc12)NC(=O)[C@H](CCCNC(=N)N)NC(=O)[C@@H](N)CCSC)C(=O)N[C@@H](Cc1ccccc1)C(=O)N[C@@H](Cc1ccc(O)cc1)C(=O)N1CCC[C@H]1C(=O)N[C@@H](CCCNC(=N)N)C(=O)N[C@@H](CCCCN)C(=O)N[C@@H](CC(C)C)C(=O)N[C@@H](CCCNC(=N)N)C(=O)O` [compound 139] (HELM PEPTIDE1{M.R.W.[dA].E.M.G.Y.I.F.Y.P.R.K.L.R}$$$$V2.0), `CC[C@H](C)[C@H](NC(=O)[C@H](Cc1ccc(O)cc1)NC(=O)CNC(=O)[C@H](CCSC)NC(=O)[C@@H](C)NC(=O)[C@H](CCC(N)=O)NC(=O)[C@H](Cc1c[nH]c2ccccc12)NC(=O)[C@H](CCCNC(=N)N)NC(=O)[C@@H](N)CCSC)C(=O)N[C@@H](Cc1ccccc1)C(=O)N[C@@H](Cc1ccc(O)cc1)C(=O)N1CCC[C@H]1C(=O)N[C@@H](CCCNC(=N)N)C(=O)N[C@@H](CCCCN)C(=O)N[C@@H](CC(C)C)C(=O)N[C@@H](CCCNC(=N)N)C(=O)O` [compound 140] (HELM PEPTIDE1{M.R.W.Q.[dA].M.G.Y.I.F.Y.P.R.K.L.R}$$$$V2.0) is higher in “Free Fatty Acid Levels in 3T3-L1 Adipocytes Expressed as a Percent of Isoproterenol Control: Percent of Control Value”: 58.1% for the first, 60.8% for the second.

Going from `CC[C@H](C)[C@H](NC(=O)[C@H](Cc1ccc(O)cc1)NC(=O)CNC(=O)[C@@H](C)NC(=O)[C@H](CCC(=O)O)NC(=O)[C@H](CCC(N)=O)NC(=O)[C@H](Cc1c[nH]c2ccccc12)NC(=O)[C@H](CCCNC(=N)N)NC(=O)[C@@H](N)CCSC)C(=O)N[C@@H](Cc1ccccc1)C(=O)N[C@@H](Cc1ccc(O)cc1)C(=O)N1CCC[C@H]1C(=O)N[C@@H](CCCNC(=N)N)C(=O)N[C@@H](CCCCN)C(=O)N[C@@H](CC(C)C)C(=O)N[C@@H](CCCNC(=N)N)C(=O)O` [compound 141] (HELM PEPTIDE1{M.R.W.Q.E.[dA].G.Y.I.F.Y.P.R.K.L.R}$$$$V2.0) to `CC[C@H](C)[C@H](NC(=O)[C@H](Cc1ccc(O)cc1)NC(=O)CNC(=O)[C@H](CCSC)NC(=O)[C@H](CCC(=O)O)NC(=O)[C@H](CCC(N)=O)NC(=O)[C@H](Cc1c[nH]c2ccccc12)NC(=O)[C@H](CCCNC(=N)N)NC(=O)[C@@H](N)CCSC)C(=O)N[C@@H](Cc1ccccc1)C(=O)N[C@@H](Cc1ccc(O)cc1)C(=O)N1CCC[C@H]1C(=O)N[C@@H](CCCNC(=N)N)C(=O)N[C@@H](CCCCN)C(=O)N[C@H](C)C(=O)N[C@@H](CCCNC(=N)N)C(=O)O` [compound 150] (HELM PEPTIDE1{M.R.W.Q.E.M.G.Y.I.F.Y.P.R.K.[dA].R}$$$$V2.0), the “Free Fatty Acid Levels in 3T3-L1 Adipocytes Expressed as a Percent of Isoproterenol Control: Percent of Control Value” falls from 56.9% to 53.9%.

Compared with `CC[C@H](C)[C@H](NC(=O)[C@H](Cc1ccc(O)cc1)NC(=O)[C@@H](C)NC(=O)[C@H](CCSC)NC(=O)[C@H](CCC(=O)O)NC(=O)[C@H](CCC(N)=O)NC(=O)[C@H](Cc1c[nH]c2ccccc12)NC(=O)[C@H](CCCNC(=N)N)NC(=O)[C@@H](N)CCSC)C(=O)N[C@@H](Cc1ccccc1)C(=O)N[C@@H](Cc1ccc(O)cc1)C(=O)N1CCC[C@H]1C(=O)N[C@@H](CCCNC(=N)N)C(=O)N[C@@H](CCCCN)C(=O)N[C@@H](CC(C)C)C(=O)N[C@@H](CCCNC(=N)N)C(=O)O` [compound 142] (HELM PEPTIDE1{M.R.W.Q.E.M.[dA].Y.I.F.Y.P.R.K.L.R}$$$$V2.0), `CSCC[C@H](NC(=O)[C@H](CCC(=O)O)NC(=O)[C@H](CCC(N)=O)NC(=O)[C@H](Cc1c[nH]c2ccccc12)NC(=O)[C@H](CCCNC(=N)N)NC(=O)[C@@H](N)CCSC)C(=O)NCC(=O)N[C@@H](Cc1ccc(O)cc1)C(=O)N[C@H](C)C(=O)N[C@@H](Cc1ccccc1)C(=O)N[C@@H](Cc1ccc(O)cc1)C(=O)N1CCC[C@H]1C(=O)N[C@@H](CCCNC(=N)N)C(=O)N[C@@H](CCCCN)C(=O)N[C@@H](CC(C)C)C(=O)N[C@@H](CCCNC(=N)N)C(=O)O` [compound 144] (HELM PEPTIDE1{M.R.W.Q.E.M.G.Y.[dA].F.Y.P.R.K.L.R}$$$$V2.0) is higher in “Free Fatty Acid Levels in 3T3-L1 Adipocytes Expressed as a Percent of Isoproterenol Control: Percent of Control Value”: 31.9% for the first, 57.0% for the second.

Compared with `CC[C@H](C)[C@H](NC(=O)[C@@H](C)NC(=O)CNC(=O)[C@H](CCSC)NC(=O)[C@H](CCC(=O)O)NC(=O)[C@H](CCC(N)=O)NC(=O)[C@H](Cc1c[nH]c2ccccc12)NC(=O)[C@H](CCCNC(=N)N)NC(=O)[C@@H](N)CCSC)C(=O)N[C@@H](Cc1ccccc1)C(=O)N[C@@H](Cc1ccc(O)cc1)C(=O)N1CCC[C@H]1C(=O)N[C@@H](CCCNC(=N)N)C(=O)N[C@@H](CCCCN)C(=O)N[C@@H](CC(C)C)C(=O)N[C@@H](CCCNC(=N)N)C(=O)O` [compound 143] (HELM PEPTIDE1{M.R.W.Q.E.M.G.[dA].I.F.Y.P.R.K.L.R}$$$$V2.0), `CC[C@H](C)[C@H](NC(=O)[C@H](Cc1ccc(O)cc1)NC(=O)CNC(=O)[C@H](CCSC)NC(=O)[C@H](CCC(=O)O)NC(=O)[C@H](CCC(N)=O)NC(=O)[C@H](Cc1c[nH]c2ccccc12)NC(=O)[C@H](CCCNC(=N)N)NC(=O)[C@@H](N)CCSC)C(=O)N[C@@H](Cc1ccccc1)C(=O)N[C@H](C)C(=O)N1CCC[C@H]1C(=O)N[C@@H](CCCNC(=N)N)C(=O)N[C@@H](CCCCN)C(=O)N[C@@H](CC(C)C)C(=O)N[C@@H](CCCNC(=N)N)C(=O)O` [compound 146] (HELM PEPTIDE1{M.R.W.Q.E.M.G.Y.I.F.[dA].P.R.K.L.R}$$$$V2.0) is lower in “Free Fatty Acid Levels in 3T3-L1 Adipocytes Expressed as a Percent of Isoproterenol Control: Percent of Control Value”: 64.5% for the first, 55.9% for the second.

Compared with `CC[C@H](C)[C@H](NC(=O)[C@H](Cc1ccc(O)cc1)NC(=O)CNC(=O)[C@H](CCSC)NC(=O)[C@H](CCC(=O)O)NC(=O)[C@H](CCC(N)=O)NC(=O)[C@H](Cc1c[nH]c2ccccc12)NC(=O)[C@H](CCCNC(=N)N)NC(=O)[C@@H](N)CCSC)C(=O)N[C@H](C)C(=O)N[C@@H](Cc1ccc(O)cc1)C(=O)N1CCC[C@H]1C(=O)N[C@@H](CCCNC(=N)N)C(=O)N[C@@H](CCCCN)C(=O)N[C@@H](CC(C)C)C(=O)N[C@@H](CCCNC(=N)N)C(=O)O` [compound 145] (HELM PEPTIDE1{M.R.W.Q.E.M.G.Y.I.[dA].Y.P.R.K.L.R}$$$$V2.0), `CC[C@H](C)[C@H](NC(=O)[C@H](Cc1ccc(O)cc1)NC(=O)CNC(=O)[C@H](CCSC)NC(=O)[C@H](CCC(=O)O)NC(=O)[C@H](CCC(N)=O)NC(=O)[C@H](Cc1c[nH]c2ccccc12)NC(=O)[C@H](CCCNC(=N)N)NC(=O)[C@@H](N)CCSC)C(=O)N[C@@H](Cc1ccccc1)C(=O)N[C@@H](Cc1ccc(O)cc1)C(=O)N1CCC[C@H]1C(=O)N[C@H](C)C(=O)N[C@@H](CCCCN)C(=O)N[C@@H](CC(C)C)C(=O)N[C@@H](CCCNC(=N)N)C(=O)O` [compound 148] (HELM PEPTIDE1{M.R.W.Q.E.M.G.Y.I.F.Y.P.[dA].K.L.R}$$$$V2.0) is lower in “Free Fatty Acid Levels in 3T3-L1 Adipocytes Expressed as a Percent of Isoproterenol Control: Percent of Control Value”: 50.2% for the first, 25.0% for the second.

Compared with `CC[C@H](C)[C@H](NC(=O)[C@H](Cc1ccc(O)cc1)NC(=O)CNC(=O)[C@H](CCSC)NC(=O)[C@H](CCC(=O)O)NC(=O)[C@H](CCC(N)=O)NC(=O)[C@H](Cc1c[nH]c2ccccc12)NC(=O)[C@H](CCCNC(=N)N)NC(=O)[C@@H](N)CCSC)C(=O)N[C@@H](Cc1ccccc1)C(=O)N[C@@H](Cc1ccc(O)cc1)C(=O)N[C@H](C)C(=O)N[C@@H](CCCNC(=N)N)C(=O)N[C@@H](CCCCN)C(=O)N[C@@H](CC(C)C)C(=O)N[C@@H](CCCNC(=N)N)C(=O)O` [compound 147] (HELM PEPTIDE1{M.R.W.Q.E.M.G.Y.I.F.Y.[dA].R.K.L.R}$$$$V2.0), `CC[C@H](C)[C@H](NC(=O)[C@H](Cc1ccc(O)cc1)NC(=O)CNC(=O)[C@H](CCSC)NC(=O)[C@H](CCC(=O)O)NC(=O)[C@H](CCC(N)=O)NC(=O)[C@H](Cc1c[nH]c2ccccc12)NC(=O)[C@H](CCCNC(=N)N)NC(=O)[C@@H](N)CCSC)C(=O)N[C@@H](Cc1ccccc1)C(=O)N[C@@H](Cc1ccc(O)cc1)C(=O)N1CCC[C@H]1C(=O)N[C@@H](CCCNC(=N)N)C(=O)N[C@@H](CCCCN)C(=O)N[C@@H](CC(C)C)C(=O)N[C@H](C)C(=O)O` [compound 151] (HELM PEPTIDE1{M.R.W.Q.E.M.G.Y.I.F.Y.P.R.K.L.[dA]}$$$$V2.0) is lower in “Free Fatty Acid Levels in 3T3-L1 Adipocytes Expressed as a Percent of Isoproterenol Control: Percent of Control Value”: 60.9% for the first, 47.9% for the second.
